Measurements from ChEMBL document CHEMBL1201862, “PubChem BioAssay data set” (2004).
Active and inactive are the calls of the source.

How the values were obtained:
[1] = ARNT/TACC3 interaction disruptors, potency, confirmation, biochemical, AlphaScreen, cherry-picked samples (AID 651703); format: functional, Homo sapiens;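 further: His-tagged ARNT PAS-B domain paired with GST-TACC3 E629A dimer coactivator fragment; potency of inhibitors that break up the complex and lower AlphaScreen signal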
[2] = target: Glucose-6-phosphate 1-dehydrogenase (Homo sapiens, UniProt P11413); experiment: human G6PD enzyme inhibitors, dose response, selectivity assay for P. falciparum G6PD inhibitor project, biochemical, fluorescence (AID 504792); format: functional
[3] = target: Tyrosine-protein phosphatase non-receptor type 11 (Homo sapiens, UniProt Q06124); experiment: SHP2 phosphatase inhibition, dose response, selectivity assay for STEP inhibitor project, biochemical (AID 602367); format: functional; settings: read-out: IC50_Mean
[4] = target: Tyrosine-protein phosphatase non-receptor type 5 (Homo sapiens, UniProt P54829); experiment: STEP phosphatase inhibitors, confirmation, biochemical, fluorescence intensity, uHTS hits (AID 602372); format: functional; settings: read-out: IC50_Mean
[5] = target: Dual specificity protein phosphatase 3 (Homo sapiens, UniProt P51452); experiment: VHR phosphatase inhibition, dose response, selectivity assay for STEP inhibitor project, biochemical (AID 602374); format: functional; settings: read-out: IC50_Mean
[6] = inhibitors of intracellular T. cruzi replication, confirmation, NIH3T3 host cells, beta-gal luminescence (AID 2044); format: functional, cell-based;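 further: intracellular parasites grown in NIH/3T3 mouse fibroblasts as host cells; luminescent beta-galactosidase reporter signal from transgenic T. cruzi replicating inside host cells; inhibitors lower the luminescence signal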
[7] = cytotoxicity toward NIH3T3 fibroblasts, dose response, counter-screen, cell-based, ATP luminescence, mouse fibroblasts (AID 2010); format: functional;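 further: cells exposed to compound for about 90 hours before reading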
[8] = THP-1 cell cytotoxicity, dose response, cytotoxicity control for non-replicating M. tuberculosis project (AID 489025); format: functional
[9] = Vero E6 cell cytotoxicity, dose response, cytotoxicity control for non-replicating M. tuberculosis project, secondary assay (AID 492998); format: functional, VeroE6; settings: Vero C1008
[10] = target: T1, Microphthalmia-associated transcription factor (Homo sapiens, UniProt O75030); experiment: TRPM1 promoter luciferase signal decrease, dose response, MITF inhibitor project, cell-based, SK-MEL-5, cherry-picked, set 3 (AID 493073); format: functional
T1 sequence (O75030 whole entry): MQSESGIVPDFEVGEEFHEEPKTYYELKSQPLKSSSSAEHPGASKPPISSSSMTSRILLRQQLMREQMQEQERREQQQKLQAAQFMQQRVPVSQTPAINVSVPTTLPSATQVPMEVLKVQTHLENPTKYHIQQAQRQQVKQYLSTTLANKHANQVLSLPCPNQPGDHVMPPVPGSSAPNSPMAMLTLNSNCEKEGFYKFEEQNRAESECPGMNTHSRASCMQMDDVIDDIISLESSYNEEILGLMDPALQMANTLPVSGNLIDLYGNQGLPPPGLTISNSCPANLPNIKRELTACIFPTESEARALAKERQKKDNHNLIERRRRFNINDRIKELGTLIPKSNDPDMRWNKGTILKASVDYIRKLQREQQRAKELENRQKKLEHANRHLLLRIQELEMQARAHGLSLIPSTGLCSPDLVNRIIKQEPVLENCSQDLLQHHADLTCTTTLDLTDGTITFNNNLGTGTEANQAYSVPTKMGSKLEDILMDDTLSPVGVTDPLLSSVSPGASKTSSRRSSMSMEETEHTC

cells = format: functional
[11] = target: Mitochondrial peptide methionine sulfoxide reductase (Bos taurus, UniProt P54149); experiment: Absorbance-based biochemical high throughput dose response assay for activators of Methionine sulfoxide reductase A (MsrA).; format: functional
[12] = target: Nuclear receptor subfamily 5 group A member 2 (Homo sapiens, UniProt O00482); format: functional, cell-based;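 further: HEK293T cells transfected with LRH-1 and a StAR promoter luciferase reporter; potency for inhibitors that lower LRH-1 driven reporter light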
Steroidogenic factor 1 = Steroidogenic factor 1 (Homo sapiens, UniProt Q13285); experiment: Counterscreen for inverse agonists of the liver receptor homolog-1 (LRH-1; NR5A2): Luminescence-based cell-based high throughput dose response assay to identify inverse agonists of the Steroidogenic Factor 1 Nuclear Receptor (SF1; NR5A1).; format: functional
[13] = StAR promoter reporter inhibition counter-screen, dose response, counter-screen for LRH-1 inverse agonist project, cell-based, luminescence, luciferase reporter (AID 651969); format: functional

Sequence of Mitochondrial peptide methionine sulfoxide reductase (P54149 whole entry): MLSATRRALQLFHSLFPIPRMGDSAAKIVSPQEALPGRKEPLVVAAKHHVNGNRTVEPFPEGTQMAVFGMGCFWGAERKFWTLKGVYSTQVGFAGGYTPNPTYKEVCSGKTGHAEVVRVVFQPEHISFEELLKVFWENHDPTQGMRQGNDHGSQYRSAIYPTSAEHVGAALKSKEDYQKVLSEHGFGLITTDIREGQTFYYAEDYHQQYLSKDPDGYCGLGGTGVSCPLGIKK
Sequence of Glucose-6-phosphate 1-dehydrogenase (P11413 whole entry): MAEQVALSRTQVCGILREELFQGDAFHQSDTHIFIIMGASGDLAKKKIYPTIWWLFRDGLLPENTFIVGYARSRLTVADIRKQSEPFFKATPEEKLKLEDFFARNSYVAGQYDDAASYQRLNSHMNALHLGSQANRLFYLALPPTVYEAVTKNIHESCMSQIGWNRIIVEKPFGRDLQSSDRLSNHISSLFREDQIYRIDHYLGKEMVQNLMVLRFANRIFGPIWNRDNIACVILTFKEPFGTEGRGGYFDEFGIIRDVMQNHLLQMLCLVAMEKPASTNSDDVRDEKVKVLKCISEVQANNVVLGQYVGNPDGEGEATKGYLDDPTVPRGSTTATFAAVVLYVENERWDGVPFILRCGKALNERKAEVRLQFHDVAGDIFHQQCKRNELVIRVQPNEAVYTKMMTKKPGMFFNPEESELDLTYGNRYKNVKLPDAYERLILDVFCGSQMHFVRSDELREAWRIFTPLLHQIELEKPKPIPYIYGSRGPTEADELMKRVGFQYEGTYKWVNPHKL
Sequence of Steroidogenic factor 1 (Q13285 whole entry): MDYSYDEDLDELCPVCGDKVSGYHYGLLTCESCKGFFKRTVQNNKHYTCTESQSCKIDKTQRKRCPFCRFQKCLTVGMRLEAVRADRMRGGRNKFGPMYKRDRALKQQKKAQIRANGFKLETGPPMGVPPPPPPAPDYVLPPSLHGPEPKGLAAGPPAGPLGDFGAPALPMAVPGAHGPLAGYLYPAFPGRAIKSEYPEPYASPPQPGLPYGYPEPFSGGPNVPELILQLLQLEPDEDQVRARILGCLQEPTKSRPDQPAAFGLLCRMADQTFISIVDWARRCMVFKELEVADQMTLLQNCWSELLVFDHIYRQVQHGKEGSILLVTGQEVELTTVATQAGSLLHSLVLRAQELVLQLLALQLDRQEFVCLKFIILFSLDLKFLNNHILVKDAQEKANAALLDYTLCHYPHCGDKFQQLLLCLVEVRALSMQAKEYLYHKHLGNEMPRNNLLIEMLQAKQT
Sequence of Tyrosine-protein phosphatase non-receptor type 11 (Q06124 whole entry): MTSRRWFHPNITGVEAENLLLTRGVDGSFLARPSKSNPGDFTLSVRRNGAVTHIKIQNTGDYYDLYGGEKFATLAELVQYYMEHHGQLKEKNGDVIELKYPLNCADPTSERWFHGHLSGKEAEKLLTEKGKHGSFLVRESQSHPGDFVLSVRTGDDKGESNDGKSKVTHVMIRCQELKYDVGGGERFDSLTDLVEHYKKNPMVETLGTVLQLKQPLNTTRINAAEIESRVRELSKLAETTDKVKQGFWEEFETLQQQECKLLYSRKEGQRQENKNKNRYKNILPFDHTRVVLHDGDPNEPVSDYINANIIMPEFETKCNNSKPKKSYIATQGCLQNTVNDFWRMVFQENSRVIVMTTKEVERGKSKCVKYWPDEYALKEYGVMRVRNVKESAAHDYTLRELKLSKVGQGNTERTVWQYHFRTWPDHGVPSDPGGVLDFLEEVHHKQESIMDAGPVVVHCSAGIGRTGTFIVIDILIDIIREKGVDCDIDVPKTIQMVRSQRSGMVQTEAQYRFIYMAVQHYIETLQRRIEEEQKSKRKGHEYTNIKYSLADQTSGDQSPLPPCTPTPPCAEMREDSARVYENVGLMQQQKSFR
Sequence of Nuclear receptor subfamily 5 group A member 2 (O00482 whole entry): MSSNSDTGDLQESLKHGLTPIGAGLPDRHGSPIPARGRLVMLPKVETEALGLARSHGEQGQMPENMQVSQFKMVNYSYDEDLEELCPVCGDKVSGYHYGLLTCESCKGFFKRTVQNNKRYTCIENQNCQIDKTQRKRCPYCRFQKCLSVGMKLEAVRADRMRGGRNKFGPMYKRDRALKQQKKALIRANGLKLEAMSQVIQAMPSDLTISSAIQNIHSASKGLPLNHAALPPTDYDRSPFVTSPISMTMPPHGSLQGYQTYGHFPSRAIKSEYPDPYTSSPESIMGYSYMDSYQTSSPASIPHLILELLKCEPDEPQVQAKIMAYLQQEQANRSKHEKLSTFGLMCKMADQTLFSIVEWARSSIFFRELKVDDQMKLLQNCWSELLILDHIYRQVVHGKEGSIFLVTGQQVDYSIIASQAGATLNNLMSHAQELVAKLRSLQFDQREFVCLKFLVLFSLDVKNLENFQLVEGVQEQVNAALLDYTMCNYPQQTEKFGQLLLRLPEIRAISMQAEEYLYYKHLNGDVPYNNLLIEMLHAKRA
Sequence of Dual specificity protein phosphatase 3 (P51452 whole entry): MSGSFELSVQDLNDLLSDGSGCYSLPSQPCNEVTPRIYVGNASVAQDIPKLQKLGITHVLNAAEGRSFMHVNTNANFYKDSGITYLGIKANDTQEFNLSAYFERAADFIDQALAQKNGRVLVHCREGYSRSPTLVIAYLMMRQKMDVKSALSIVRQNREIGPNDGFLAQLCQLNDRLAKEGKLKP
Sequence of Tyrosine-protein phosphatase non-receptor type 5 (P54829 whole entry): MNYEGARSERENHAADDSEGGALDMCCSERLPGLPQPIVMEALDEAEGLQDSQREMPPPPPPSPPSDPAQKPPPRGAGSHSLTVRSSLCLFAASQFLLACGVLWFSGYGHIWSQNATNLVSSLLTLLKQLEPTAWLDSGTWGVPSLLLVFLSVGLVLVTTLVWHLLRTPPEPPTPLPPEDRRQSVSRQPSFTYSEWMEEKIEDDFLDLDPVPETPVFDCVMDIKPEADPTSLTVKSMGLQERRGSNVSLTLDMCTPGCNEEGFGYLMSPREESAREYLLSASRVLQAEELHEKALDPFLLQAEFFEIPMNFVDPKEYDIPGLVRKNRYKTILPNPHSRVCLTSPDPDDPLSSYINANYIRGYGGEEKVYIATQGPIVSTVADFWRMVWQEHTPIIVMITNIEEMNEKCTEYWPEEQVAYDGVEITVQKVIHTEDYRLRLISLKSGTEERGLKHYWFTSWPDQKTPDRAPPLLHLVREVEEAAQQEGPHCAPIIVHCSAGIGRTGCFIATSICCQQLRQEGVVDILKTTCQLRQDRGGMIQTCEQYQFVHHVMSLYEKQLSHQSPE

With `CCOc1ccc2c(c1)C(N(CCN1CCOCC1)C(=O)Nc1ccccc1)CC(C)(C)O2` (stereo not given) the AC50 [1] was 84 µM (active).

In the case of `CCN1CCN(C(=S)c2ccc(Cl)c(Cl)c2)CC1`, the IC50 [2] is reported as > 80 µM (inactive), the IC50 [3] is reported as 0.843 µM (active) and the IC50 [4] is reported as 18.2 µM (active). The IC50 [5] was 0.81 µM (active).

For `O=C(N/N=C/c1ccc([N+](=O)[O-])s1)c1cccc(Br)c1`, the EC50 [6] was 0.754 µM (active), the EC50 [7] was 5.39 µM (active) and the CC50 [8] was 7.59 µM (active). For the same compound, the CC50 [9] was 6.21 µM (active), the AC50 [10] was 4.83 µM (active) and the IC50 (cells) was 4.37 µM (active). For the same compound, the EC50 [11] was > 104 µM (inactive).

For `COc1cc(/C=N/n2nnnc2N)ccc1OCc1c(C)no[n+]1[O-]`, the IC50 [12] was 12.4 µM (inactive), the IC50 (Steroidogenic factor 1) was 6.23 µM (active) and the IC50 [13] was 35.9 µM (inactive).
